Test results reported in patent US20110178016A1, “PULSE PARATHYROID HORMONE FOR TREATMENT OF THE HEM[…], STROMAL CELL LOSS, AND VASCULAR INJURY RESULTING FROM ACUTE EXPOSURE TO LETHAL RADIATION” (priority 2008, published 2011).
Entries after “also recorded” stand apart in the source; their conditions may differ.

How the values were obtained:
[1] = PTH levels after subcutaneous administration in transplanted monkeys; assay type: in vivo, nonhuman primates (monkeys); settings: 5 micrograms/kg subcutaneously
Description: Bone marrow transplant studies by Calvi and colleagues characterized this process in the syngeneic mouse model of osteoblastic activation. To see if PTH could enhance allogeneic stem cell engraftment in nonhuman primates (monkeys), donors were MHC mismatched based on recipient proliferation against donor cells in the mixed lymphocyte culture and by disparity at the class I antigen, Bw6. This disparity permitted tracking of Bw6+ donor cells following transplantation into Bw6-recipients. Eight control recipients were conditioned with thymoglobulin, rituxan, fludarabine, and melphalan. Six animals received the conditioning regimen supplemented with parathyroid hormone beginning on the first day of the conditioning regimen and administered daily at a dose of 5 micrograms/kg subcutaneously. An allogeneic stem cell transplant consisting of 2−4×10^6 CD34+cells/kg was administered on day 0. Outcome measures included PTH levels, CBCs, and donor engraftment via flow cytometry.

[2] = test system: mice exposed to lethal radiation (772 cGy); test: Survival of mice after lethal irradiation (772 cGy) with PTH treatment; assay type: in vivo, B6 mice; settings: for Thirty day survival: no treatment 50%; for 49 day survival: vehicle 60%
Experimental: In a study of 98 mice exposed to lethal irradiation, half received placebo (saline) and half received daily PTH 80 mcg/kg/day for 28 days. There was a survival advantage in the PTH treated group, 24/49 survived vs placebo, 16/49, (95% CI, 0.7707, 2.462).
80 ug/day PTH therapy followed lethal irradiation (772 cGy) exposure. 49 mice were treated with daily PTH (80 mcg/kg/d sc×28 days) 24 hours following a lethal radiation exposure of 772 cGy and compared to 49 vehicle treated control animals. Outcome measures included platelet counts, survival, and other hematopoietic studies. When censoring for technical deaths, 46 animals were analyzed in the placebo group (daily saline injections) with 47 analyzed from the daily PTH 80 mcg/kg/day treatment. […] Thirty-day survival in the placebo group was 18/46 or 39%. Of the PTH treated animals 26/47 animals survived (55%, p=0.2).
In another set of dose finding experiments, the same radiation exposure was used (772 cGy). Three treatment groups were studied: (1) untreated (no placebo, n=8), (2) treated with 200 mcg/kg PTH daily beginning 24 hours after radiation exposure, n=12, (3) treated with 200 mcg/kg PTH twice daily beginning 24 hours after radiation exposure, n=12.
Comparison was made of animals treated with PTH, 200 ug/day, 200 ug twice daily (BID) vs those receiving no PTH treatment following lethal irradiation (772 cGy).
Three groups of B6 mice underwent irradiation.
Group 1 received no treatment, n=8.
Group 2 received PTH, 200 micrograms/kg/day, n=10, first begun 24 hours following radiation exposure to 772 cGy and continued for 28 days.
Group 3 received the same duration of PTH but instead was treated twice daily, 200 micrograms/kg/day BID for a daily total dose of 400 mcg/kg/day, n=12.
Four cohorts of B6 mice were irradiated to uniform, total body, midline tissue dose at a dose rate of 80+2.5 cGy/min to a dose of 772 cGy.
Group 1 received vehicle control (saline) treatment×28 days, beginning 24 hours after radiation, n=10.
Group 2 received PTH, 400 micrograms/kg/day, n=10, first begun 24 hours following radiation exposure to 772 cGy and continued for 28 days.
Group 3 received PTH, 1000 micrograms/kg/day, n=10, 24 hours following radiation, and then 400 mcg/kg/day for 7 days.
Group 4 received PTH, 400 micrograms/kg/day, n=10, 24 hours following radiation, and continued for 7 days.

[3] = test system: bone marrow colony forming units / CD34+ hematopoietic stem cells; test: Bone marrow CFU and CD34+ cells in non-irradiated monkeys 24 hours after first PTH dose; assay type: in vivo, cynomolgus monkeys; settings: non-irradiated CYNOs
Experimental: (§1) Two cynomolgus monkeys (hereafter referred to as CYNOs) were treated with a 21 day course of daily subcutaneous PTH at either 100 mcg/kg (monkey 7801) or 50 mcg/kg (monkey 7872). Hematopoietic outcome measures included:
(a) bone marrow analysis for colony forming units 24 hours after first dose of PTH;
(b) bone marrow analysis for CD34+ hematopoietic stem cells 24 hours after first dose of PTH;

[4] = Serum PTH levels for PK analysis in non-irradiated monkeys; assay type: in vivo, cynomolgus monkeys; settings: non-irradiated monkeys 7801 (100 mcg/kg/d) and 7872 (50 mcg/kg/d), days 1 and 18
Experimental: PTH becomes undetectable by 4-6 hours after dosing, despite extremely high doses of PTH.
as §1
(c) serum PTH levels; and […]

[5] = test system: monkeys; settings: prolonged daily dosing, 4 months-2 years; cited from earlier work
[6] = clinical studies, cited from earlier work

Compound: CC[C@H](C)[C@H](NC(=O)[C@H](CCC(=O)O)NC(=O)[C@H](CO)NC(=O)[C@@H](NC(=O)[C@@H](N)CO)C(C)C)C(=O)N[C@@H](CCC(N)=O)C(=O)N[C@@H](CC(C)C)C(=O)N[C@@H](CCSC)C(=O)N[C@@H](Cc1cnc[nH]1)C(=O)N[C@@H](CC(N)=O)C(=O)N[C@@H](CC(C)C)C(=O)NCC(=O)N[C@@H](CCCCN)C(=O)N[C@@H](Cc1cnc[nH]1)C(=O)N[C@@H](CC(C)C)C(=O)N[C@@H](CC(N)=O)C(=O)N[C@@H](CO)C(=O)N[C@@H](CCSC)C(=O)N[C@@H](CCC(=O)O)C(=O)N[C@@H](CCCN=C(N)N)C(=O)N[C@H](C(=O)N[C@@H](CCC(=O)O)C(=O)N[C@@H](Cc1c[nH]c2ccccc12)C(=O)N[C@@H](CC(C)C)C(=O)N[C@@H](CCCN=C(N)N)C(=O)N[C@@H](CCCCN)C(=O)N[C@@H](CCCCN)C(=O)N[C@@H](CC(C)C)C(=O)N[C@@H](CCC(N)=O)C(=O)N[C@@H](CC(=O)O)C(=O)N[C@H](C(=O)N[C@@H](Cc1cnc[nH]1)C(=O)N[C@@H](CC(N)=O)C(=O)N[C@@H](Cc1ccccc1)C(=O)O)C(C)C)C(C)C [PTH, Teriparatide]
- time by which PTH levels were undetectable [1]: ≤ 4 h
- Tmax ([1]; monkey, in vivo, sc, read-out: time of peak PTH levels after administration (converted)): 30 min
- survival (survived/total) ([2]; 98 mice, lethal irradiation, PTH 80 mcg/kg/day for 28 days, placebo 16/49): 24/49
- reduction in mortality ([2]; 772 cGy, 200 mcg/kg experiments, LD50/30 changed to LD25/30): 25%
- thrombocytopenia duration or nadir ([2]; 772 cGy, PTH 80 mcg/kg/day vs placebo): no significant difference
- Thirty day survival ([2]; 772 cGy, PTH 200 mcg/kg daily for 28 days (8/12)): 67%
- Thirty day survival ([2]; 772 cGy, PTH 200 mcg/kg twice daily for 28 days (9/12)): 75%
- 49 day survival ([2]; 772 cGy, PTH 400 mcg/kg/day x 7 days (Group 4), p=0.02): 100%
- 49 day survival ([2]; 772 cGy, PTH 400 micrograms/kg/day x 28 days (Group 2, 9/10), p=0.05): 90%
- 49 day survival ([2]; 772 cGy, PTH 1000 micrograms/kg/day then 400 mcg/kg/day for 7 days (Group 3, 9/10), p=0.05): 90%
- preputial inflammation and abscess among survivors ([2]; 1000 mcg/kg dose group, control survivors 3/6): ⅙
- 30-day survival ([2]; 7 day course of PTH 400 mcg/kg/day following an LD50/30 radiation exposure): 100%
- survival ([2]; daily or twice doses of PTH, lethal irradiation dose expected to result in 50% death of mice (summary)): 100%
- preputial inflammation and abscess / infection among survivors ([2]; other PTH groups (400 mcg/kg/day x 28 days or x 7 days), control survivors 3/6): None were observed; also recorded: prevents infection
- CFU-GM and CFU-M in bone marrow aspirates ([3]; 50 or 100 mcg/kg, 24 hours after first dose, more pronounced with higher dose): increases
- Erythroid, megakaryocyte lineages (BFU, CFU-GEMM) in bone marrow aspirate ([3]; 50 or 100 mcg/kg, after first dose): increase
- bone marrow analysis, all lineages, by PTH dose ([3]; 50 vs 100 mcg/kg): dose response
- percent of CD34+ hematopoietic stem cells vs pre-treatment levels ([3]; 24 hours after first dose): increases
- time after dosing by which PTH becomes undetectable in serum [4]: 4 to 6 h
- doses at which toxicity was observed [5]: > 0.04 mg/kg
- toxic effect ([6]; even with chronic treatment): no toxic effect
- biological potency vs full-length PTH protein [6]: comparable biological potency
